Patent publication US6316409A, “Modified ligands of calcium-dependent binding proteins” (Medical Research Council, priority 1996, dated 2001)
Peptide text beside a SMILES is read from it.

What was measured:
bovine brain calmodulin [1] = molecular target: T1, bovine brain calmodulin (Bos taurus, UniProt P62157); experiment: stopped-flow measurement of kisom of calmodulin-binding peptides; settings: changes in tryptophan fluorescence
T1 construct: Complexes between calmodulin from bovine brain (1 μM, Sigma); purchased Sigma; host or cells: bovine brain (tissue-derived)
Excerpt: It has been shown by Torok and Trentham (1994) that smooth muscle MLCK-derived peptides bind to calmodulin with a biphasic kinetic according to the scheme: [drawing 1]
in which P is the peptide, C is calmodulin, P-C is the first complex formed on association of P and C, which then undergoes a conformational isomerisation to P-C*.
(§1) For a kinetic and thermodynamic characterisation of the binding of the peptides of the present invention to bovine brain calmodulin, we have measured the kinetic isomerisation, association, and dissociation constants from which dissociation constants can be derived.
kisom constants have been measured by stopped-flow, detecting changes in tryptophan fluorescence for all the peptides except 3 (SEQ ID NO:4), in which the tryptophan is replaced by alanine.

bovine brain calmodulin [2] = molecular target: T1, bovine brain calmodulin; experiment: BIAcore surface plasmon resonance, kon and koff of calmodulin binding to biotinylated peptides; settings: for koff / kon: BIAcore; for koff: read-out: koff (s^-1)^B; for kon: read-out: kon (s^-1 M^-1)^B
Excerpt: as §1
koff =k-1·k-2 /(k+2 +k-2)
(§2) Real-time interaction analysis by surface plasmon resonance on a BIAcore instrument (Jonsson et al., 1991) was used to determine kon and koff constants. Biotinylated peptides 1-17 were bound to commercially available streptavidin-coated microsensor chips (Pharmacia Biosensor), in order to achieve a surface capacity of 100-200 surface plasmon resonance units of calmodulin bound. Different concentrations of calmodulin (5, 10, 20, 50 and 100 nM in the order of FIG. 2) were injected and allowed to associate with the peptides. Regeneration of the surface was achieved by injection of 5 μl TBS+[…] which dissociates the calmodulin-peptide complex.

calmodulin [3] = molecular target: T2, calmodulin (Bos taurus, UniProt P62157); experiment: koff by competition experiments, native PAGE of fluorescein-labelled peptide/calmodulin complexes; type: binding, bovine; design: Complexes between calmodulin from bovine brain (1 μM, Sigma); purchased Sigma; host or cells: bovine brain (tissue-derived); settings: competition with 30-fold excess unlabelled peptide, room temperature, gel buffer; read-out: koff (s^-1)^C
Protocol: Complexes between calmodulin from bovine brain (1 μM, Sigma) and fluorescein-labelled sMLCK-derived peptides (as described in Table 1 (SEQ ID NOS:2-18)) were prepared in gel buffer (25% gel mix [4 g sucrose+1 mg bromophenol blue in water to give a 10 ml solution]+75% TBSC [50 mM TRIS pH 7.4, […]+50 μM CaCl2)] and run on a 15% native PAGE gel (5 ml 30% acrylamide-bisacrylamide solution+4.5 ml water+0.5 ml 3M Tris, pH 8.8, +1 μl 1M CaCl2 polymerised with 30 μl 25% ammonium persulphate and 9 μl TEMED) using 14.4 g/l glycine+3 g/l Tris-base+0.1 mM CaCl2 as running buffer. Peptides were labelled either with iodoacetamido fluorescein (Molecular Probes) or with iodoacetamido-LC-biotin (Pierce) essentially as previously described by Neri et al., (1995). In these conditions, the fluorescence of the positively-charged labelled peptides can be detected only if they form a stable complex with calmodulin.
(§3) In order to obtain an independent experimental confirmation if the BIAcore results, koff constants for peptides 1-17 towards calmodulin were determined by competition experiments. 30 nM fluorescein-labelled peptide/calmodulin complexes in gel buffer were competed at room temperature for different times with 30-fold excess of unlabelled peptide. The resulting mixtures were run on native PAGE gels and imaged by LUANA as described above. The bands in the image obtained were integrated using the LUANA software (Neri et al., 1996) and the corresponding intersities plotted versus time and fitted with a single exponential, from which koff constants were derived. In order to normalise band intensities against pipetting errors, the samples contained 6 nM free fluorescein which ran with the front. The fluorescein bands were integrated and used to normalise the calmodulin/fluorescent peptide complex band intensity. The results of competitions for peptides 1, 2, 3, 6, 9, and 14 are shown in this FIG. 3. Incubation time in minutes is indicated under the lanes.
The volumes of the bands were plotted versus competition time and fitted to a single exponential, from which koff values were derived.
The fastest competitions (peptides 1-4, 9 and 13, SEQ ID NOS:2-5,10, and 14) were over by the time the calmodulin/fluorescent peptide complex entered the gel (approximately 5-10 minutes from pipetting a molar excess of unlabelled peptide; FIG. 3), from which a condition on the off-rate constant koff >1×10^-3 s^-1 was derived. Even for these fast off-rates, complexes can be detected by native polyacrylamide gel electrophoresis because of the well known gel "cage effect" (Fried and Crothers, 1981; Garner and Revzin, 1981).

calmodulin [4] = molecular target: T2, calmodulin; experiment: kinetic analysis of N9 replacement peptides and multiple mutant by the methods of Examples 3 and 4; type: binding
Protocol: as §2, with “Biotinylated peptides 1-17 were bound to commercially available streptavidin-coated microsensor chips (Pharmacia Biosensor), in order to achieve a surface capacity of 100-200 surface plasmon resonance units of calmodulin bound.” left out
as §3, with “30” for “In order to obtain an independent experimental confirmation if the BIAcore results, koff constants for peptides 1-17 towards calmodulin were determined by competition experiments. 30”, “The results of competitions for peptides 1, 2, 3, 6, 9, and 14 are shown in this FIG. 3.” left out
Hydrophobic donor residues (valine, phenylalanine and leucine) were chosen because it was hypothesized that these residues would contribute to the stability of the hydrophobic environment in the calmodulin core.

Q: Which results are given for CC[C@H](C)[C@H](NC(=O)[C@H](C)NC(=O)[C@H](CCCCN)NC(=O)[C@H](Cc1ccccc1)NC(=O)[C@H](CCCNC(=N)N)NC(=O)[C@H](CC(N)=O)NC(=O)[C@H](C)NC(=O)[C@H](C)NC(=O)[C@H](CO)NC(=O)[C@@H](NC(=O)[C@H](C)NC(=O)[C@@H](NC(=O)[C@H](Cc1ccccc1)NC(=O)[C@H](CC(N)=O)NC(=O)[C@H](CCCCN)NC(=O)[C@H](CCCCN)NC(=O)[C@H](Cc1c[nH]c2ccccc12)NC(=O)[C@H](CCCNC(=N)N)NC(=O)[C@H](C)NC(=O)[C@H](C)NC(=O)[C@H](C)NC(=O)[C@@H](N)CS)[C@@H](C)CC)C(C)C)C(=O)N[C@@H](CO)C(N)=O [Peptide 15] (H-CAAARWKKNFIAVSAANRFKAIS-NH2; N-terminus assumed)?
A: kisom. (s^-1)^A (bovine brain calmodulin [1]): 1.2 (10.3) × 10^-1 s^-1; koff (bovine brain calmodulin [2]): 0.00022 s⁻¹; kon (bovine brain calmodulin [2]): 1.1e+06 M⁻¹ s⁻¹; koff (calmodulin [3]): 0.00021 s⁻¹

Q: For CC[C@H](C)[C@H](NC(=O)[C@H](Cc1ccccc1)NC(=O)[C@H](CC(N)=O)NC(=O)[C@H](CCCCN)NC(=O)[C@H](CCCCN)NC(=O)[C@H](Cc1c[nH]c2ccccc12)NC(=O)[C@H](CCCNC(=N)N)NC(=O)[C@H](C)NC(=O)[C@H](C)NC(=O)[C@H](C)NC(=O)[C@@H](N)CS)C(=O)N[C@@H](C)C(=O)N[C@H](C(=O)N[C@@H](CO)C(=O)N[C@@H](C)C(=O)N[C@@H](C)C(=O)N[C@@H](CC(N)=O)C(=O)N[C@@H](CCCNC(=N)N)C(=O)N[C@@H](Cc1ccccc1)C(=O)N[C@@H](CCCCN)C(=O)N[C@@H](CCCCN)C(=O)N[C@@H](C)C(=O)N[C@@H](CO)C(N)=O)C(C)C [Peptide 16] (H-CAAARWKKNFIAVSAANRFKKAS-NH2; N-terminus assumed), which “kisom. (s^-1)^A” value (bovine brain calmodulin [1]) is on record?
A: The value was 8.7 (11.5) × 10^-2 s^-1.

Q: And the koff (bovine brain calmodulin [2])?
A: Its koff is 0.00031 s⁻¹.

Q: What about the kon (bovine brain calmodulin [2]) of the same molecule?
A: Its kon is 810000 M⁻¹ s⁻¹.

Q: What about the koff (calmodulin [3]) of the same molecule?
A: Its koff is 0.00028 s⁻¹.

Q: How did the “kisom. (s^-1)^A” value (bovine brain calmodulin [1]) turn out when CC[C@H](C)[C@H](NC(=O)[C@H](CCCCN)NC(=O)[C@H](CCCCN)NC(=O)[C@H](Cc1ccccc1)NC(=O)[C@H](CCCNC(=N)N)NC(=O)[C@H](CC(N)=O)NC(=O)[C@H](C)NC(=O)[C@H](C)NC(=O)[C@H](CO)NC(=O)[C@@H](NC(=O)[C@H](C)NC(=O)[C@@H](NC(=O)[C@H](Cc1ccccc1)NC(=O)[C@H](CC(N)=O)NC(=O)[C@H](CCCCN)NC(=O)[C@H](CCCCN)NC(=O)[C@H](Cc1c[nH]c2ccccc12)NC(=O)[C@H](CCCNC(=N)N)NC(=O)[C@H](C)NC(=O)[C@H](C)NC(=O)[C@H](C)NC(=O)[C@@H](N)CS)[C@@H](C)CC)C(C)C)C(=O)N[C@@H](C)C(N)=O [Peptide 17] (H-CAAARWKKNFIAVSAANRFKKIA-NH2; N-terminus assumed) was run?
A: The value was 1.3 (10.4) × 10^-1 s^-1.

Q: What about the “improvement of koff with respect to wild type, in words” value (bovine brain calmodulin [2]) of the same molecule?
A: Its value is “largest improvements”.

Q: And the koff (bovine brain calmodulin [2])?
A: Its koff is 0.00013 s⁻¹.

Q: What about the kon (bovine brain calmodulin [2]) of the same molecule?
A: The kon was 820000 M⁻¹ s⁻¹.

Q: What about the “improvement in Kd / affinity for calmodulin over the wild type peptide, in words” value (bovine brain calmodulin [2]; Table 1) of the same molecule?
A: Its value is “greatest improvement in Kd”.

Q: What about the koff (calmodulin [3]) of the same molecule?
A: The koff was 7e-05 s⁻¹.

Q: How did the “affinity for calmodulin compared with other peptides, in words” value (calmodulin [4]) turn out when CC[C@H](C)[C@H](NC(=O)[C@H](CCCCN)NC(=O)[C@H](C)NC(=O)[C@H](Cc1ccccc1)NC(=O)[C@H](CCCNC(=N)N)NC(=O)[C@H](CC(N)=O)NC(=O)[C@H](C)NC(=O)[C@H](C)NC(=O)[C@H](C)NC(=O)[C@@H](NC(=O)[C@H](C)NC(=O)[C@@H](NC(=O)[C@H](Cc1ccccc1)NC(=O)[C@H](C)NC(=O)[C@H](CCCCN)NC(=O)[C@H](CCCCN)NC(=O)[C@H](Cc1c[nH]c2ccccc12)NC(=O)[C@H](CCCNC(=N)N)NC(=O)[C@H](C)NC(=O)[C@H](C)NC(=O)[C@H](C)NC(=O)[C@@H](N)CS)[C@@H](C)CC)C(C)C)C(=O)N[C@@H](C)C(N)=O [SEQ ID NO:19] (H-CAAARWKKAFIAVAAANRFAKIA-NH2; N-terminus and C-terminus assumed) was run?
A: Its value is “comparable to that of peptide 6”.

Q: And the koff (calmodulin [4]; multiple mutant)?
A: The koff was 5.9e-06 s⁻¹.

Q: And the kon (calmodulin [4]; multiple mutant)?
A: Its kon is 610000 M⁻¹ s⁻¹.

Q: What does the source list for CC[C@H](C)[C@H](NC(=O)[C@H](Cc1ccccc1)NC(=O)[C@@H](NC(=O)[C@H](CCCCN)NC(=O)[C@H](CCCCN)NC(=O)[C@H](Cc1c[nH]c2ccccc12)NC(=O)[C@H](CCCNC(=N)N)NC(=O)[C@H](C)NC(=O)[C@H](C)NC(=O)[C@H](C)NC(=O)[C@@H](N)CS)C(C)C)C(=O)N[C@@H](C)C(=O)N[C@H](C(=O)N[C@@H](CO)C(=O)N[C@@H](C)C(=O)N[C@@H](C)C(=O)N[C@@H](CC(N)=O)C(=O)N[C@@H](CCCNC(=N)N)C(=O)N[C@@H](Cc1ccccc1)C(=O)N[C@@H](CCCCN)C(=O)N[C@@H](CCCCN)C(=O)N[C@H](C(=O)N[C@@H](CO)C(N)=O)[C@@H](C)CC)C(C)C [a] (H-CAAARWKKVFIAVSAANRFKKIS-NH2; N-terminus and C-terminus assumed)?
A: koff (calmodulin [4]; Table II, N9 replacement): 0.00035 s⁻¹; kon (calmodulin [4]; Table II, N9 replacement): 850000 M⁻¹ s⁻¹

Q: With CC[C@H](C)[C@H](NC(=O)[C@H](Cc1ccccc1)NC(=O)[C@H](Cc1ccccc1)NC(=O)[C@H](CCCCN)NC(=O)[C@H](CCCCN)NC(=O)[C@H](Cc1c[nH]c2ccccc12)NC(=O)[C@H](CCCNC(=N)N)NC(=O)[C@H](C)NC(=O)[C@H](C)NC(=O)[C@H](C)NC(=O)[C@@H](N)CS)C(=O)N[C@@H](C)C(=O)N[C@H](C(=O)N[C@@H](CO)C(=O)N[C@@H](C)C(=O)N[C@@H](C)C(=O)N[C@@H](CC(N)=O)C(=O)N[C@@H](CCCNC(=N)N)C(=O)N[C@@H](Cc1ccccc1)C(=O)N[C@@H](CCCCN)C(=O)N[C@@H](CCCCN)C(=O)N[C@H](C(=O)N[C@@H](CO)C(N)=O)[C@@H](C)CC)C(C)C [b] (H-CAAARWKKFFIAVSAANRFKKIS-NH2; N-terminus and C-terminus assumed) as the molecule, how does the koff (calmodulin [4]; Table II, N9 replacement) read?
A: The koff was 2.9e-05 s⁻¹.

Q: And the kon (calmodulin [4]; Table II, N9 replacement)?
A: The kon was 290000 M⁻¹ s⁻¹.

Q: What does the source list for CC[C@H](C)[C@H](NC(=O)[C@H](Cc1ccccc1)NC(=O)[C@H](CC(C)C)NC(=O)[C@H](CCCCN)NC(=O)[C@H](CCCCN)NC(=O)[C@H](Cc1c[nH]c2ccccc12)NC(=O)[C@H](CCCNC(=N)N)NC(=O)[C@H](C)NC(=O)[C@H](C)NC(=O)[C@H](C)NC(=O)[C@@H](N)CS)C(=O)N[C@@H](C)C(=O)N[C@H](C(=O)N[C@@H](CO)C(=O)N[C@@H](C)C(=O)N[C@@H](C)C(=O)N[C@@H](CC(N)=O)C(=O)N[C@@H](CCCNC(=N)N)C(=O)N[C@@H](Cc1ccccc1)C(=O)N[C@@H](CCCCN)C(=O)N[C@@H](CCCCN)C(=O)N[C@H](C(=O)N[C@@H](CO)C(N)=O)[C@@H](C)CC)C(C)C [c] (H-CAAARWKKLFIAVSAANRFKKIS-NH2; N-terminus and C-terminus assumed)?
A: koff (calmodulin [4]; Table II, N9 replacement): 2.3e-05 s⁻¹; kon (calmodulin [4]; Table II, N9 replacement): 1.1e+06 M⁻¹ s⁻¹
